In one assay the target is Pyk2 (Homo sapiens, UniProt Q14289). The experiment in a line: Pyk2 assay. On Pyk2, outcome of primary assay: key: DNH = did not hit in primary assay. Type of assay: biochemical.
Another assay addresses T1, src protein kinase (Gallus gallus, UniProt P00523).
T1 construct: made in house; host or cells: Schizosaccharomyces pombe strain SP200
The experiment in a line: Biochemical src assay (bio SRC). On bio SRC, outcome of primary assay: key: DNH = did not hit in primary assay. The following applies: for IC50: 50% inhibition of target PTK activity. How it is done: This assay is used to determine src protein kinase activity measuring phosphorylation of a biotinylated peptide as the readout.
a. Yeast transformed with src (Sugen, Inc., Redwood City, Calif.).
1. Coat ELISA plate with 0.5 μg/well anti-src mab in 100 μl of pH 9.6 sodium carbonate buffer; hold at 4° C. overnight.
2. Wash wells once with PBS.
3. Block plate with 0.15 ml 5% milk in PBS for 30 min. at room temperature.
4. Wash plate 5× with PBS.
5. Add 10 μg/well of src transformed yeast lysates diluted in Lysis Buffer (0.1 ml total volume per well). (Amount of lysate may vary between batches.) Shake plate for 20 minutes at room temperature.
1. 4G10 plate: coat 0.5 μg/well 4G10 in 100 μl PBS overnight at 4° C. and block with 150 μl of 5% milk in PBS for 30 minutes at room temperature.
1. Remove unbound proteins.from plates and wash plates 5× with PBS.
2. Add 0.08 ml Kinase Reaction Mixture per well (containing 10 μl of 10×-Kinase Buffer and 10 μM (final concentration) biotin-EEEYEEYEEEYEEEYEEEY per well diluted in water.
3. Add 10 μl of compound diluted in water containing 10% DMSO and pre-incubate for 15 minutes at room temperature.
4. Start kinase reaction by adding 10 μl/well of 0.05 mM ATP in water (5 μM ATP final).
5. Shake ELISA plate for 15 min. at room temperature.
6. Stop kinase reaction by adding 10 μl of 0.5 M EDTA per well.
7. Transfer 90 μl supernatant to a blocked 4G10 coated ELISA plate.
8. Incubate for 30 min. while shaking at room temperature.
9. Wash plate 5× with TBST.
10. Incubate with Vectastain ELITE ABC reagent (100 μl/well) for 30 min. at room temperature.
11. Wash the wells 5× with TBST.
12. Develop with Turbo TMB.

For a further assay, the target named is T2, IGF-1 receptor (Homo sapiens, UniProt P08069).
T2 construct: expressed in transfected cells; host or cells: NIH3T3/IGF-1R
Put plainly: Cellular IGF-1 receptor assay (cell IGF). On cell IGF, outcome of primary assay: key: DNH = did not hit in primary assay. Type of assay: cell-based. The note with it: for IC50: 50% inhibition of target PTK activity. How it is done: The following protocol may be used to measure phosphotyrosine level on IGF-1 receptor, which indicates IGF-1 receptor tyrosine kinase activity.
a. The cell line used in this assay is 3T3/IGF-1R, a cell line genetically engineered to overexpresses IGF-1 receptor.
2. […] Incubate for 1 day then replace medium to serum-free medium (90/μl) and incubate in 5% CO2 and 37° C. overnight.
2. Remove the coating solution, and replace with 100 μl Blocking Buffer, and shake for 30 minutes. Remove the blocking buffer and wash the plate just before adding lysate.
1. The drugs are tested under serum-free condition.
2. Dilute drug stock (in 100% DMSO) 1:10 with DMEM in 96-well poly-propylene plate, and transfer 10 μl/well of this solution to the cells to achieve final drug dilution 1:100, and final DMSO concentration of 1.0%. Incubate the cells in 5% CO2 at 37° C. for 2 hours.
3. Prepare fresh cell lysis buffer (HNTG*)
4. After drug incubation for two hours, transfer 10 μl/well of 200 nM IGF-1 Ligand in PBS to the cells (Final Conc. is 20 nM), and incubate at 5% CO2 at 37° C. for 10 minutes.
5. Remove media and add 100 μl/well HNTG* and shake for 10 minutes. Look at cells under microscope to see if they are adequately lysed.
6. Use a 12-channel pipette to scrape the cells from the plate, and homogenize the lysate by repeated aspiration and dispensing. Transfer all the lysate to the antibody coated ELISA plate, and shake for 1 hour.
7. Remove the lysate, wash the plate, transfer anti-pTyr (1:3,000 with TBST) 100 μl/well, and shake for 30 minutes.
8. Remove anti-pTyr, wash the plate, transfer TAGO (1:3,000 with TBST) 100 μl/well, and shake for 30 minutes.
9. Remove detection antibody, wash the plate, and transfer fresh ABTS/H2O2 (1.2 μl H2O2 to 10 ml ABTS) 100 μl/well to the plate to start color development.
10. Measure OD at 410 nm with a reference wavelength of 630 nm in Dynatec MR5000.

The next assay has as its target T3, PDGFR (Homo sapiens, UniProt P09619).
T3 construct: expressed in transfected cells; host or cells: NIH 3T3
The experiment in a line: Biochemical PDGFR assay (bio PDGFR), ELISA. How it is done:
This assay measures the in vitro kinase activity of PDGFR using ELISA.
6. PDGFR-β expressing NIH 3T3 cell lysate (Screening Lab, SUGEN, Inc.).
1. Coat Corning 96 well ELISA plates with 0.5 μg 28D4C10 in 100 μl PBS per well, store overnight at 4° C.
2. Remove unbound 28D4C10 from wells by inverting plate to remove liquid. Wash 1× with dH2O. Pat the plate on a paper towel to remove excess liquid.
3. Add 150 μl of Blocking Buffer to each well. Incubate for 30 min. at room temperature with shaking.
4. Wash plate 3× with deionized water, then once with TBST. Pat plate on a paper towel to remove excess liquid and bubbles.
5. Dilute lysate in HNTG (10 μg lysate/100 μl HNTG)
6. Add 100 μl of diluted lysate to each well. Shake at room temperature for 60 min.
7. Wash plates as described in 4, above.
8. Add 80 μl working kinase buffer mix to ELISA plate containing captured PDGFR.
10. Add 10 μl diluted test compound to ELISA plate.
11. Incubate for 30 minutes while shaking at room temperature.
12. Add 10 μl ATP directly to all wells except negative control well (final well volume should be approximately 100 μl with 20 μM ATP in each well.) Incubate 30 minutes while shaking.
13. After 30 minutes, stop reaction by adding 10 μl of 200 mM EDTA (pH 8.0) to each well.
14. Wash 4× with deionized water, twice with TBST.
15. Add 100 μl anti-phosphotyrosine (1:3000 dilution in TBST) per well. Incubate 30-45 min. at room temperature, with shaking.
16. Wash as described in 4, above.
17. […] Incubate 30 min. at room temperature, with shaking.
18. Wash as described in 4, above.
19. Add 100 μl of ABTS/H2O2 solution to each well.
20. Incubate 10 to 30 minutes with shaking. Remove any bubbles.
21. If necessary stop reaction with the addition of 100 μl 0.2 M HCl per well.

Setting [1] is: 50% inhibition of target PTK activity, read-out: bio PDGFR IC50.
Setting [2] is: bio PDGFR IC50, 50% inhibition of target PTK activity.
Setting [3] is: 50% inhibition of target PTK activity, read-out: Pyk2 IC50.

Values joined by “and” are separate entries in the source; they are usually repeats but may differ in a detail not shown here. Equal entries are not always repeated. Where two headings read alike, the source gives them in different places.

Chain of Pyk2 (Q14289 whole entry, species assumed): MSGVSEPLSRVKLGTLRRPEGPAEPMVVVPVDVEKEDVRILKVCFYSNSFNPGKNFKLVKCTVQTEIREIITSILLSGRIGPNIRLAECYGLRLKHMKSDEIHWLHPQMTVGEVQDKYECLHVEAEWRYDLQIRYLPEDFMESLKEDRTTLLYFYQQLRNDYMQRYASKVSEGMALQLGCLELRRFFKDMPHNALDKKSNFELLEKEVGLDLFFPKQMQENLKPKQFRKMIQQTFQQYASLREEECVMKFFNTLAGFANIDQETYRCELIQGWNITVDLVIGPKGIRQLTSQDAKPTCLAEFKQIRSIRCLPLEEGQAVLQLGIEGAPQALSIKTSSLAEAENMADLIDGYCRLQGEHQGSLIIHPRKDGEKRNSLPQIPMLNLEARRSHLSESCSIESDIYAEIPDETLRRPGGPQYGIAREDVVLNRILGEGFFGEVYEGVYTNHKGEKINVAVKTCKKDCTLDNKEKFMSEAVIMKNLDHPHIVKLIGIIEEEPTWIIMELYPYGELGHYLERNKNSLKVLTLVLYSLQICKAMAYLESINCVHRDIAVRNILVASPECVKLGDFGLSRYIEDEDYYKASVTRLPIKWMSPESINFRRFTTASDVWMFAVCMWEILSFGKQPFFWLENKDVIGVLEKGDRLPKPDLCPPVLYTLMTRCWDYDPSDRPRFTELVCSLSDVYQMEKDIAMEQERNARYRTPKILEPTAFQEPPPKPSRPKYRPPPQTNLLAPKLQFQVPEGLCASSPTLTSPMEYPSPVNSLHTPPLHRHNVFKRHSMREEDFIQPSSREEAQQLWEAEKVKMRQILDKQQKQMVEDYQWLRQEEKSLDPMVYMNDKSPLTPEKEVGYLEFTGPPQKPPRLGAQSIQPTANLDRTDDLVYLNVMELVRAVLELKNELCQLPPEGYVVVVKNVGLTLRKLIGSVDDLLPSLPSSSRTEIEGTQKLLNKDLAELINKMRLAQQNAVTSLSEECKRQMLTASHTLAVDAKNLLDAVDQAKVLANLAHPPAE
T2 sequence (P08069 31-1367): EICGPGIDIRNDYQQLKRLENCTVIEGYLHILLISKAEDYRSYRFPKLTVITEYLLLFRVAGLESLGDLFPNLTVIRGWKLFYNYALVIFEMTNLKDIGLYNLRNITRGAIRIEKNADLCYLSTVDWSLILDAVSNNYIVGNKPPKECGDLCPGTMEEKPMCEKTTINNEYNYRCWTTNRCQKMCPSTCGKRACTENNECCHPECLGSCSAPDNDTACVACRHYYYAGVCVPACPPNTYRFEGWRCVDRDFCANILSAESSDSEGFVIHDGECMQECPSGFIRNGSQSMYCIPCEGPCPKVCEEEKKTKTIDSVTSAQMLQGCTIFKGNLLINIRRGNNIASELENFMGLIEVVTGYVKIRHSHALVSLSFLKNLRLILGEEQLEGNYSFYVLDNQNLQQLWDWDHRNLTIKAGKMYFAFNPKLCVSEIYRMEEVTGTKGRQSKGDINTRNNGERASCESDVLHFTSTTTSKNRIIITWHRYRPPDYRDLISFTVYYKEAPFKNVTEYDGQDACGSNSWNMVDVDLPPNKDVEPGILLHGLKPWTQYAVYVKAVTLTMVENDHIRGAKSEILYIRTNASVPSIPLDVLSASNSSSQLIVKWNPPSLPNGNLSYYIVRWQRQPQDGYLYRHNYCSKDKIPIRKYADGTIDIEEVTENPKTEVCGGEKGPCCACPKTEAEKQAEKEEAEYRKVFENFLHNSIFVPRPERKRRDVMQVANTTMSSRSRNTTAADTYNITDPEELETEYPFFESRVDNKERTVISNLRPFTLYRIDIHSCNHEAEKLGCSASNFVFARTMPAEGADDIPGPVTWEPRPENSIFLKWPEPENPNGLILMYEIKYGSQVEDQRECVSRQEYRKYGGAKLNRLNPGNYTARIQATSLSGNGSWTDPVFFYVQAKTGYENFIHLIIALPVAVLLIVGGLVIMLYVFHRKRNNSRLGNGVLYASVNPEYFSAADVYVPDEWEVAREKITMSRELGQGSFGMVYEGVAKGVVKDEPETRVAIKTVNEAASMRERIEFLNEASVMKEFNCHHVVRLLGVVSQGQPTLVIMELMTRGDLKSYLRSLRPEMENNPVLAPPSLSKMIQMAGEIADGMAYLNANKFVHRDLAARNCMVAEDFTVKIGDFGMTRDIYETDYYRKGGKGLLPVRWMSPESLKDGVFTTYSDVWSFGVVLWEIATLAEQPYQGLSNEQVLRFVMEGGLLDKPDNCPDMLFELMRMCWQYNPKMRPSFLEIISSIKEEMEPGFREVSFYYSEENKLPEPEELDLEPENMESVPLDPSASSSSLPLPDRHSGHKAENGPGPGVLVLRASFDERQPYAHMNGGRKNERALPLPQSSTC
T3 sequence (P09619 33-1106, species assumed): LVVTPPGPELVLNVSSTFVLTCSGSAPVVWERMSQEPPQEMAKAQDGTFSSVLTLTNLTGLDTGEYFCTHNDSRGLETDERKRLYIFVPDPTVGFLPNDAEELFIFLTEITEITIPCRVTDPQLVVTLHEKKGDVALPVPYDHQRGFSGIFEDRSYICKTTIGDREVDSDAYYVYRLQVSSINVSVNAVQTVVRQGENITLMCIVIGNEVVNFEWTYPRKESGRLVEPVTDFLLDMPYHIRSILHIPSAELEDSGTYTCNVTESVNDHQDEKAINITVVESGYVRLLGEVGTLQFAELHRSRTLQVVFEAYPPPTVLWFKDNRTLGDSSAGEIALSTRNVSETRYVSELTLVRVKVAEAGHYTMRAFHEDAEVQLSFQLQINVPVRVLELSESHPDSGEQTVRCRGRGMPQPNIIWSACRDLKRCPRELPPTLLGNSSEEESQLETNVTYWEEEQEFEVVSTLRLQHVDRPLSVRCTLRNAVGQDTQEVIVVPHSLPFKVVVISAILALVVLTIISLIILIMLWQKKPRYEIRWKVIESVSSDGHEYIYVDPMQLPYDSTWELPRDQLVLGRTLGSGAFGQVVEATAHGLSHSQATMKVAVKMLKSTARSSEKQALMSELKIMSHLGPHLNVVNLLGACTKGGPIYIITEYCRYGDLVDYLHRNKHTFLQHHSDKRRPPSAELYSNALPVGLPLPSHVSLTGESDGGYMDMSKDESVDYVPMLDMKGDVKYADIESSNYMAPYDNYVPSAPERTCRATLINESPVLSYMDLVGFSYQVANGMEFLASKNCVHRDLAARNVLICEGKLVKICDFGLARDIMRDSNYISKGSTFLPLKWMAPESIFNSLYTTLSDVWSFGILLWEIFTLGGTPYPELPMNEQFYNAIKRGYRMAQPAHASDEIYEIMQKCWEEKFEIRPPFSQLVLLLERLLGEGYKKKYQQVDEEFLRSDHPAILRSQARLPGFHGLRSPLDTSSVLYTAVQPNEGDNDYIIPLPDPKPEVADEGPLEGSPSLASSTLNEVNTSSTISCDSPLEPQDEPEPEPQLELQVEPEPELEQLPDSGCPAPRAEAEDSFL

For the compound `COc1cc2c(cc1OC)/C(=C1\C(=O)Nc3ccccc31)CC2` [Compound 12, 3-(5,6-Dimethoxyindan-1-ylidene)-1,3-dihydroindol-2-one], the “Pyk2, outcome of primary assay” value on Pyk2 is reported as “DNH”. Also, the IC50 against src protein kinase, at IGF-1 receptor and at PDGFR (setting [1]) was above 25 µM in each case.

Regarding `O=C1Nc2ccccc2/C1=C1\CCc2cc(Cl)ccc21` [Compound 7, 3-(5-Chloroindan-1-ylidene)-1,3-dihydroindol-2-one], at Pyk2, the “Pyk2, outcome of primary assay” value is listed as “DNH”. The IC50 at src protein kinase and on PDGFR (setting [1]) was above 100 µM in each case. For the same compound, the “cell IGF, outcome of primary assay” value at IGF-1 receptor is “DNH”.

With `COc1ccc2c(c1)C(CC(=O)[O-])CC2=C1C(=O)Nc2ccccc21.[Na+]` (stereo not drawn) [Compound 13, [6-Methoxy-3-(2-oxo-1,2-dihydroindol-3-ylidene)-indan-1-yl]acetic Acid Sodium Salt], the IC50 was 4.5 µM against Pyk2; above 100 µM against IGF-1 receptor; 1 µM and 3.2 µM on PDGFR (setting [2]).

On to `O=C1Nc2ccccc2/C1=C1\CCc2cc(N3CCCCC3)ccc21` [Compound 8, 3-(5-Piperidin-1-yl-indan-1-ylidene)-1,3-dihydroindol-2-one], for which the “Pyk2, outcome of primary assay” value on Pyk2 is “DNH”. For the same compound, the “cell IGF, outcome of primary assay” value at IGF-1 receptor was “DNH”. Further, the IC50 on PDGFR (setting [1]) was above 100 µM.

As to `O=C1Nc2ccccc2/C1=C1\CCc2cc(Br)ccc21` [Compound 9, 3-(5-Bromoindan-1-ylidene)-1,3-dihydroindol-2-one], at IGF-1 receptor, the “cell IGF, outcome of primary assay” value is reported as “DNH”. Also, on PDGFR (setting [1]), the IC50 is above 100 µM.

In the case of `COc1ccc2c(c1)CC/C2=C1/C(=O)Nc2ccccc21` [Compound 3, 3-(5-Methoxyindan-1-ylidene)-1,3-dihydroindol-2-one], at Pyk2 (concentration not given), the “Pyk2 % Inh” value is 56%. Further, at Pyk2, the “Pyk2, outcome of primary assay” value is reported as “DNH”. The “bio SRC, outcome of primary assay” value on src protein kinase is reported as “DNH”. For the same compound, the “cell IGF, outcome of primary assay” value at IGF-1 receptor is listed as “DNH”. Besides, at PDGFR (setting [2]), the midpoint of inhibition, the IC50, lay at 86.9 µM.

With `O=C1Nc2ccccc2/C1=C1\CCc2ccccc21` [Compound 10, 3-Indan-1-ylidene-1,3-dihydroindol-2-one], the values for the IC50 against src protein kinase, against IGF-1 receptor and at PDGFR (setting [1]) were above 100 µM, above 100 µM and 63.7 µM, respectively.

As for `CC1C/C(=C2/C(=O)Nc3ccccc32)c2ccccc21` (stereo not drawn) [Compound 1, 3-(3-methylindan-1-ylidene)-1,3-dihydroindol-2-one], the half-maximal inhibitory concentration (IC50) on Pyk2 (setting [3]) and at PDGFR (setting [1]) was above 100 µM each time. The “bio SRC, outcome of primary assay” value at src protein kinase is “DNH”. Moreover, the “cell IGF, outcome of primary assay” value on IGF-1 receptor is listed as “DNH”.

`CN(C)c1ccc2c(c1)CC/C2=C1/C(=O)Nc2ccccc21` [Compound 5, 3-(5-Dimethylaminoindan-1-ylidene)-1,3-dihydroindol-2-one]: the IC50 on Pyk2 (setting [3]) was 79.3 µM; against src protein kinase, above 100 µM; on PDGFR (setting [1]) it was 50.8 µM. In addition, the “cell IGF, outcome of primary assay” value on IGF-1 receptor was “DNH”.

Take `COc1ccc2c(c1)C(CC(=O)O)C/C2=C1/C(=O)Nc2ccccc21` (stereo not drawn) [Compound 11, [6-Methoxy-3-(2-oxo-1,2-dihydroindol-3-ylidene)-indan-1-yl]acetic Acid]: the IC50 on Pyk2 (setting [3]) is 9.3 µM; against IGF-1 receptor it was above 100 µM; on PDGFR (setting [1]) it was 1.5 µM.

As to `Cc1cccc2c1CC/C2=C1/C(=O)Nc2ccccc21` [Compound 2, 3-(4-Methylindan-1-ylidene)-1,3-dihydroindol-2-one], at Pyk2, the “Pyk2, outcome of primary assay” value is listed as “DNH”. The “bio SRC, outcome of primary assay” value on src protein kinase was “DNH”. The “cell IGF, outcome of primary assay” value on IGF-1 receptor is given as “DNH”. Further, the IC50 on PDGFR (setting [1]) is above 100 µM.

Usually IC50 stands for the concentration at which inhibition is half-maximal.
